Consider two molecules from PMC12348882, “Rational Design, Synthesis and In Vitro Activity of Diastereomeric Cis-/Trans-3-Substituted-3,4-Dihydroisocoumarin-4-Carboxylic Acids as Potential Carnitine Acetyltransferase Inhibitors” (Molecules, 2025).

Molecules are shown by their SMILES. “Also recorded” adds a separate entry of the source.

Assay [1] has as its target T1, carnitine acetyltransferase (CAT) (Columba livia, UniProt P52826).
T1 construct: an enzyme isolated from pigeon breast muscle (Sigma Aldrich) was used in the form of an ammonium sulfate suspension; tissue Sigma-Aldrich; host or cells: pigeon breast muscle
T1 sequence (P52826 31-627): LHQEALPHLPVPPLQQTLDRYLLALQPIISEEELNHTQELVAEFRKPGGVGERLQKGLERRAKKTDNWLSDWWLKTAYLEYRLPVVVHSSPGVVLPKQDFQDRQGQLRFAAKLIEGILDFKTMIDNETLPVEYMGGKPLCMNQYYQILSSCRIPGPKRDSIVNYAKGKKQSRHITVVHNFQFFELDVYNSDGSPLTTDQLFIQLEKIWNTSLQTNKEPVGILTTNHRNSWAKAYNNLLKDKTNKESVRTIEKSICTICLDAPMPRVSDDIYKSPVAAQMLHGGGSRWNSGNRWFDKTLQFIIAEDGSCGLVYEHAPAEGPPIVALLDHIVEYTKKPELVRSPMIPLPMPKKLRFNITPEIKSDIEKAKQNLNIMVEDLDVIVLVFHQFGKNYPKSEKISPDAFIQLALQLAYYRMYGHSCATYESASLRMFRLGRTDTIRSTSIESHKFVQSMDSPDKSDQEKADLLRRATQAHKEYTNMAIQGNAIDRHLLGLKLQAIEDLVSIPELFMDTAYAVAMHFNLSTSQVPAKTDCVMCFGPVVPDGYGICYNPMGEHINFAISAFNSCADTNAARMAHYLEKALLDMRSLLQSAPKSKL
Put plainly: Initial screening of CAT inhibition, spectrophotometric kinetic method with Ellman's reagent. In kind it is biochemical. To be noted: read in first minute of reaction. Here is the method:
To assess the inhibitory potential of the synthesized compounds against CAT, we conducted an initial screening at three concentrations: 100 μM, 250 μM and 1000 μM. Readings were taken within the first minute after the reaction started, and inhibition was measured using a kinetic method, as described in the Experimental section. The results are summarized and presented as a percentage of inhibition in Figure 2 and Figure 3 for the 3-alkyl-3,4-dihydroisocoumarin-4-carboxylic acids and the 3-alkyl/3-aryl-6,7-dimethoxy-3,4-dihydroisocoumarin-4-carboxylic acids, respectively.
To determine the effect of the synthesized compounds on CAT activity, a modified procedure for spectrophotometric determination of L-carnitine using Ellman’s reagent was used. In all analyses, an enzyme isolated from pigeon breast muscle (Sigma Aldrich) was used in the form of an ammonium sulfate suspension with an activity of 71 U/mg protein. One unit of enzyme catalyzes the conversion of 1 μmol of L-carnitine and acetyl-CoA into acetylcarnitine and free CoA in 1 min. Phosphate buffer (0.5 M, pH = 7.6) is used to dilute the enzyme to obtain a stock solution with a concentration of 24 U/mL.
Ellman’s reagent was prepared immediately before each measurement by dissolving 25 mg DTNB in 5 mL 1 mM solution of Na2EDTA in phosphate buffer (0.5 M, pH = 7.6). Stock solutions of acetyl-CoA and L-carnitine were prepared in deionized water with concentrations of 348.0 μM and 303.4, respectively. An aqueous solution of tris (hydroxymethyl) aminomethane (TRIS) with pH = 7.6 and 1 M concentration was used as a buffer solution. Test compounds were dissolved and diluted in phosphate buffer (0.5 M, pH = 7.6) to the desired stock concentration. The working volume of the reaction is 300 μL and contains 50 μL of each of the six components (DTNB, TRIS, acetyl-CoA, CAT, L-carnitine and inhibitor) solutions with concentrations as described below. In the control samples, the inhibitor solution is replaced with phosphate buffer (0.5 M, pH = 7.6). The incubation time for all components without L-carnitine is 5 min at 37 °C. The reaction was started by adding L-carnitine, and its progress was monitored by reading the change in absorbance at 405 nm in kinetic mode. The concentrations of the components in the final volume were, c (DTNB) = 114 μM, c (TRIS) = 100 mM, c (acetyl-CoA) = 58 μM, c (CAT) = 4 U/mL and c (L-carnitine) = 50.56 μM. The time for reading the results was the first minute after starting the reaction.
In general terms: In Ellman's method for cholinesterases, released thiocholine reacts with DTNB.

Assay [2] concerns the target T1, carnitine acetyltransferase (CAT). Put plainly: Kinetic studies of CAT inhibition mechanism (Michaelis-Menten / Lineweaver-Burk, SigmaPlot regression). In kind it is biochemical, pigeon. Particulars: for Type / mechanism of inhibition: model chosen by R^2, AIC and Sy,x. An excerpt:
These experiments allowed us to identify the inhibition mechanism and calculate Km, Vmax and Ki. We used SigmaPlot version 12.5 (Systat Software Inc., San Jose, CA, USA), which includes modules for regression analysis and various inhibition models. This software also lets us choose the mechanism of inhibition with the highest correlation factors (coefficient of determination (R^2) and Akaike information coefficient (AIC)) and the lowest Sy,x value. The numerical results are summarized in Table 1, while the corresponding Lineweaver–Burk and Michaelis–Menten kinetic plots are available in the Supplementary Materials.
(Michaelis-Menten) and 1/v0 vs. […] (Lainweaver-Burke) relationships. For this purpose, five solutions with different concentrations of the inhibitor and five solutions with different concentrations of L-carnitine were prepared. […] The time for reading the results is every six seconds for three minutes after the start of the reaction, which corresponds to the end of the linear interval. The initial velocity v0 was determined using the method proposed by Baici, by calculating the cut-off of the v vs. t (time) dependence for the linear interval of each of the reactions. Graphical dependencies are provided in the Supplementary Materials (Figures S1–S3).
Figure S2. Graphs representing the dependence of the initial velocity (v 0) on the concentration of the substrate [S], according to the model of Michaelis -Menten – left, and Lineweaver-Burk – right, for reversible a) mixed, b) non-competitive, c) uncompetitive and d) competitive inhibition. The concentration of the inhibitor - compound cis-8 are 0 μM, 25.6 μM, 51.2 μM and 68.3 μM, concentration of L-carnitine are 94 μM, 180 μM, 370 μM, 750 μM and 1500 μM.
Figure S3. Graphs representing the dependence of the initial velocity (v 0) on the concentration of […]
for reversible a) mixed, b) uncompetitive, c) non-competitive and d) competitive inhibition. The concentration of the inhibitor - compound trans-8 are 0 μM, 26.0 μM, 52.0 and 69.4 μM,

The target in assay [3] is carnitine acetyltransferase (CAT). Set-up: method as in PMID 39942839. To be noted: positive control; ref [21]; cited from earlier work.
Setting [4] is: fit to competitive inhibition model.
[5] abbreviates: fit to non-competitive inhibition model.
The mark [6] stands for this setting: fit to uncompetitive inhibition model.

Broadly, the inhibition is the share of the control response that was lost under treatment. By Ki is commonly meant the equilibrium dissociation constant of an inhibitor or competing ligand from its target. For the molecule `CCCCCCCCCCC1OC(=O)c2cc(OC)c(OC)cc2C1C(=O)O` (racemic) [cis-8, Cis- and Trans-(±)-3-Decyl-3,4-Dihydro-6,7-Dimethoxy-1-Oxo-1H-Isochromene-4-Carboxylic Acids], the inhibition at 100 µM in assay [1] (read-out: CAT inhibition (%), inhibitor 100 μM) worked out at 44%. In assay [1] (read-out: CAT inhibition (%), inhibitor 250 μM), the inhibition at 250 µM was 71%. Also, the inhibition at 1000 µM in assay [1] (read-out: CAT inhibition (%), inhibitor 1000 μM) was determined as 85%. The AIC in assay [2] (setting [4]) is recorded as −1519.782; in assay [2] (fit to mixed inhibition model), −1562.764; in assay [2] (setting [5]), −1565.380; in assay [2] (setting [6]), −1550.555. Moreover, the “Sy,x” value in assay [2] (setting [4]) is 5.211 × 10^−9; in assay [2] (fit to mixed inhibition model), 2.987 × 10^−9; in assay [2] (setting [5]), 2.947 × 10^−9; in assay [2] (setting [6]), 3.547 × 10^−9. The α amounted to 0.97 in assay [2] (mixed inhibition model) and 1 in assay [2] (non-competitive inhibition model). In assay [2] (mixed-type inhibition model, L-carnitine varied), affinity was put at a Ki of 0.13 mM. Besides, the results for the “Type / mechanism of inhibition” value in assay [2] and in assay [2] (listed as cis-3-decyl-6,7-dimethoxy-3,4-dihydroisocoumarin-4-carboxylic acid) were “mixed-type inhibitors; also recorded: allosteric inhibitor” and “mixed inhibition”, respectively.
The IC50 is the concentration needed to halve the response being measured. On to `C[N+](C)(C)NCCC(=O)[O-]` [Meldonium], for which the IC50 in assay [3] was 11.4 mM.
